Assay results published in patent US20030109418A1, “Methods for identifying compounds for inhibition of neoplastic lesions, and pharmaceutical compositions containing such compounds” (priority 1999, published 2003).

How the values were obtained:
[1] = target: T1, PDE peak A (PDE5) from SW480 cells (Homo sapiens, UniProt O76074); assay: cGMP hydrolysis inhibition, PDE peak A from SW480; assay type: biochemical; settings: cGMP hydrolysis, 0.25 μM 3H-cGMP
T1 construct: endogenous in cells; host or cells: SW480 colon cancer cells, DEAE-Trisacryl M fraction

[2] = target: T2, purified cyclooxygenase (Type 1, COX-I) from ram seminal vesicles (Ovis aries, UniProt P05979); assay: COX inhibition assay, purified cyclooxygenase; assay type: biochemical
T2 construct: using purified cyclooxygenase from ram seminal vesicles as described previously; tissue Cayman Chemical, Ann Arbor, Mich; (named in the general protocol only); host or cells: ram seminal vesicles
T2 sequence (P05979 25-600): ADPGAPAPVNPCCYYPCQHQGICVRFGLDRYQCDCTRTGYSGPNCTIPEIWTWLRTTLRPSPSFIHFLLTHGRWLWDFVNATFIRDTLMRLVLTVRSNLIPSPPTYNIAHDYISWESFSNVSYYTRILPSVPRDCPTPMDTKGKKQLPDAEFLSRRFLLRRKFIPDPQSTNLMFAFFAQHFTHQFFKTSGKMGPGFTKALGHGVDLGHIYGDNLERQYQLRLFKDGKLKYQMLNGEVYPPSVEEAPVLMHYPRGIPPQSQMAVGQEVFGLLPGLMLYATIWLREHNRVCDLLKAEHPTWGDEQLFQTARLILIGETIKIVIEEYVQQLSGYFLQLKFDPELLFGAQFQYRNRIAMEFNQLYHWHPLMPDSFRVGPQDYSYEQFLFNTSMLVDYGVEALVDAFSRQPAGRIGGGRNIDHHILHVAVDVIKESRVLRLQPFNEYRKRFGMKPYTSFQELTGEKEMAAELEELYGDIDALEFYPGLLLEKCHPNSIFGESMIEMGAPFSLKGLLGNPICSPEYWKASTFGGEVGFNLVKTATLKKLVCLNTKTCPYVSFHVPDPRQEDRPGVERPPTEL

[3] = test system: cGMP PDE purified from human colon HT-29 cultured tumor cells; assay: cGMP PDE inhibition assay; assay type: biochemical
[4] = test system: PDE4 purified from human colon HT-29 cultured tumor cells; assay: PDE4 inhibition assay; assay type: biochemical; settings: HT-29 cell enzyme
[5] = test system: cGMP and cAMP levels in HT-29 cells; assay: Cyclic nucleotide levels in cultured cells by radioimmunoassay; assay type: cell-based, human; settings: HT-29 cells treated 30 minutes
[6] = test system: HT-29 colon adenocarcinoma cells; assay: Apoptosis by DNA fragmentation assay in HT-29; assay type: cell-based, human; settings: qualitative activity profile; note: key: −: Not active; +: Slightly active; ++: Moderately active; +++: Strongly active; ++++: Highly active
[7] = test system: HCT116, Colon; assay: Growth inhibition, SRB assay, HCT116; assay type: cell-based
Source text: (§1) A compound's ability to inhibit tumor cell growth can be measured using the HT-29 human colon carcinoma cell line obtained from ATCC. HT-29 cells have previously been characterized as a relevant colon tumor cell culture model (Fogh, J., and Trempe, G. In: Human Tumor Cells in Vitro, J. Fogh (eds.), Plenum Press, New York, pp. 115-159, 1975). HT-29 cells are maintained in RPMI media supplemented with 5% fetal bovine calf serum (Gemini Bioproducts, Inc., Carlsbad, Calif.) and 2 mm glutamine, and 1% antibiotic-antimycotic in a humidified atmosphere of 95% air and 5% CO2 at 37° C. Briefly, HT-29 cells are plated at a density of 500 cells/well in 96 well microtiter plates and incubated for 24 hours at 37° C. prior to the addition of compound. […] After six days in culture, the cells are fixed by the addition of cold trichloroacetic acid to a final concentration of 10% and protein levels are measured using the sulforhodamine B (SRB) colorimetric protein stain assay as previously described by Skehan, P., Storeng, R., Scudiero, D., Monks, A., McMahon, J., Vistica, D., Warren, J. T., Bokesch, H., Kenney, S., and Boyd, M. R., “New Colorimetric Assay For Anticancer-Drug Screening,” J. Natl. Cancer Inst. […]
(§2) To show the effectiveness of this screening method on various forms of neoplasia, compounds were tested on numerous cell lines. […] The IC50 values were determined by the SRB assay. […]

[8] = test system: UACC375, Melanoma; assay: Growth inhibition, SRB assay, UACC375; assay type: cell-based
Source text: as §1, §2

[9] = test system: A-427, Lung; assay: Growth inhibition, SRB assay, A-427; assay type: cell-based
Source text: as §1, §2

[10] = test system: Bronchial Epithelial Cells; assay: Growth inhibition, SRB assay, bronchial epithelial cells; assay type: cell-based
Source text: as §1, §2

[11] = test system: premalignant lesions in mouse mammary gland organ culture; assay: Mammary gland organ culture model; assay type: cell-based; for mammary gland organ culture: key: −: Not active; +: Slightly active; ++: Moderately active; +++: Strongly active; ++++: Highly active
Source text: Test compounds identified by the above methods can be tested for antineoplastic activity by their ability to inhibit the incidence of pre-neoplastic lesions in a mammary gland organ culture system. This mouse mammary gland organ culture technique has been successfully used by other investigators to study the effects of known antineoplastic agents such as certain NSAIDs, retinoids, tamoxifen, selenium, and certain natural products, and is useful for validation of the screening method of the present invention.
For example, female BALB/c mice can be treated with a combination of estradiol and progesterone daily, in order to prime the glands to be responsive to hormones in vitro. The animals are sacrificed, and thoracic mammary glands are excised aseptically and incubated for ten days in growth media supplemented with insulin, prolactin, hydrocortisone, and aldosterone. DMBA (7,12-dimethylbenz(a)anthracene) is added to medium to induce the formation of premalignant lesions. Fully developed glands are then deprived of prolactin, hydrocortisone, and aldosterone, resulting in the regression of the glands but not the pre-malignant lesions.
The test compound is dissolved in DMSO and added to the culture media for the duration of the culture period. At the end of the culture period, the glands are fixed in 10% formalin, stained with alum carmine, and mounted on glass slides. The incidence of forming mammary lesions is the ratio of the glands with mammary lesions to […]. The incidence of mammary lesions in test compound treated glands is compared with that of the untreated glands.
The extent of the area occupied by the mammary lesions can be quantitated by projecting an image of the gland onto a digitation pad. The area covered by the gland is traced on the pad and considered as 100% of the area. The space covered by each of the non-regressed structures is also outlined on the digitization pad and quantitated by the computer.
Mammary gland organ culture experiment were performed as previously described (Mehta and Moon, Cancer Research, 46: 5832-5835, 1986). […] The data support the hypothesis that cyclooxygenase inhibition is not necessary for the anti-neoplastic properties of desired compounds.

[12] = target: T3, cGMP binding sites of the GST-cGB-PDE5 protein (Homo sapiens, UniProt O76074); assay: cGMP binding assay with GST-cGB-PDE5 fusion protein; settings: 3H-cGMP 2 μM
T3 construct: made in house; host or cells: E. coli BL21 (DE3)

Which IC50 [1] does the source give for “5-fluoro-2-methyl-1-(p-methylsulfinylbenzylidene)-3-indenylacetic acid [Sulindac sulfide]” here?
The IC50 was 50 µM.

And the “Cyclooxygenase inhibitory activity, % Inhibition at 100 μM” value ([2]; 100 μM)?
The value was 97%.

And the “COX Inhibition” value ([2]; qualitative activity profile)?
Its value is “++++”.

What about the “cGMP PDE inhibitory activity, % Inhibition at 10 μM” value ([3]; 10 μM) of the same substance?
The value was 97%.

What about the “PDE Inhibition” value ([3]; qualitative activity profile) of the same substance?
Its value is “+++”.

What about the IC50 ([3]; read-out: IC50 for inhibition of cGMP PDE, HT-29 cell enzyme) of the same substance?
Its IC50 is 17 µM.

And the IC50 [4]?
Its IC50 is 41 µM.

And the “effect on cAMP levels” value [5]?
Its value is “unaffected”.

What about the “increase of cGMP levels” value [5] of the same substance?
The value was “greater than 50%”.

What about the EC50 ([5]; read-out: EC50 for increase of cGMP) of the same substance?
Its EC50 is 7.3 µM.

And the Apoptosis [6]?
The Apoptosis was “+++”.

And the IC50 [7]?
The IC50 was 45 µM.

What about the IC50 [8] of the same substance?
The IC50 was 50 µM.

And the IC50 [9]?
Its IC50 is 90 µM.

What about the IC50 [10] of the same substance?
Its IC50 is 30 µM.

And the “inhibition of the formation of premalignant lesions” value ([11]; mammary gland organ culture)?
The value was “inactive”.

What about the “Mammary Gland Organ Culture” value ([11]; qualitative activity profile) of the same substance?
The value was “−”.

And the “competition with cGMP in binding of GST-cGB-PDE5” value [12]?
The value was “do not bind to the cGMP binding sites of PDE5”.
